For data set [1] the following is noted: clinical use of the marketed drug; cited from earlier work.
In a further data set the target is T1, mTOR (Homo sapiens, UniProt P42345).
T1 construct: purchased Invitrogen
The experiment in a line: mTOR kinase inhibition assay (radiometric or LanthaScreen TR-FRET). Type of data set: biochemical. The conditions noted are these: read-out: mTORC IC50.

A further data set addresses T2, PI3K α (p110α/p85α) (Homo sapiens, UniProt P42336).
T2 construct: purchased Upstate / Millipore Corporation
Kind of data set: PI 3-Kinase (human) HTRF assay, PI3K α. Type of data set: biochemical. The conditions noted are these: read-out: PI3K α IC50. (In TR-FRET formats the signal depends on donor and acceptor labels being close together.)

The target in a further data set is T3, PI3K β (p110β/p85α) (Homo sapiens, UniProt P42338).
T3 construct: purchased Upstate / Millipore Corporation
The experiment in a line: PI 3-Kinase (human) HTRF assay, PI3K β. Type of data set: biochemical. Conditions: read-out: PI3K β IC50.

The next data set addresses T4, PI3K γ (p110γ) (Homo sapiens, UniProt P48736).
T4 construct: purchased Upstate / Millipore Corporation
Kind of data set: PI 3-Kinase (human) HTRF assay, PI3K γ. Type of data set: biochemical. Conditions: read-out: PI3K γ IC50.

The target in a further data set is T5, PI3K δ (Homo sapiens, UniProt O00329).
T5 construct: purchased Upstate / Millipore Corporation
T5 sequence (O00329 whole entry): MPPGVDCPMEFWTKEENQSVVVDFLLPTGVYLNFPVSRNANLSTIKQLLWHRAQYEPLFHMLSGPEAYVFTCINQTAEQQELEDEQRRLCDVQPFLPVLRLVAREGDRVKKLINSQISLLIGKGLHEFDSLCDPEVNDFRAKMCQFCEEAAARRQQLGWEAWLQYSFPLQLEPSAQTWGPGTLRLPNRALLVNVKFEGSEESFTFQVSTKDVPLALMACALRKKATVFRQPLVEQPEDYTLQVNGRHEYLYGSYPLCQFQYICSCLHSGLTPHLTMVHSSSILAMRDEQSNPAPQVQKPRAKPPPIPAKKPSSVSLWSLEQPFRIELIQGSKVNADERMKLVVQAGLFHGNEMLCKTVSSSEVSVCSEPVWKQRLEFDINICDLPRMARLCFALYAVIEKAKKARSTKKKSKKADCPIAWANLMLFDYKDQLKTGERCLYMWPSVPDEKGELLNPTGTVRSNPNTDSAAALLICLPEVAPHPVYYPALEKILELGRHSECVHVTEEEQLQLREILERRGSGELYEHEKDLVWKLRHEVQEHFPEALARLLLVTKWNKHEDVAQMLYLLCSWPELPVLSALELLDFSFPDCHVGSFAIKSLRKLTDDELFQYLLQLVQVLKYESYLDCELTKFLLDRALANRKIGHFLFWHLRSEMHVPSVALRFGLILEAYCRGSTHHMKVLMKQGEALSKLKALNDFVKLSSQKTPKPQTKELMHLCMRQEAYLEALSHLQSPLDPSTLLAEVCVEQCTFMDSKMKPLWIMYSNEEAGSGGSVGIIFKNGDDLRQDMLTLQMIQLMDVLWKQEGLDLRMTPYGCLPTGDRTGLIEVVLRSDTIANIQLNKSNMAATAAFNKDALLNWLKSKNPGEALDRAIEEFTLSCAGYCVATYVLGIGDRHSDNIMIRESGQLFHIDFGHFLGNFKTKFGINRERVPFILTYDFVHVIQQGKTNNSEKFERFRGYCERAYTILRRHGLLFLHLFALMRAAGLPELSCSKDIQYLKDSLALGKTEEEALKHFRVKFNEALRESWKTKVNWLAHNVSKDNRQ
T5 sequence (P27986 whole entry partner): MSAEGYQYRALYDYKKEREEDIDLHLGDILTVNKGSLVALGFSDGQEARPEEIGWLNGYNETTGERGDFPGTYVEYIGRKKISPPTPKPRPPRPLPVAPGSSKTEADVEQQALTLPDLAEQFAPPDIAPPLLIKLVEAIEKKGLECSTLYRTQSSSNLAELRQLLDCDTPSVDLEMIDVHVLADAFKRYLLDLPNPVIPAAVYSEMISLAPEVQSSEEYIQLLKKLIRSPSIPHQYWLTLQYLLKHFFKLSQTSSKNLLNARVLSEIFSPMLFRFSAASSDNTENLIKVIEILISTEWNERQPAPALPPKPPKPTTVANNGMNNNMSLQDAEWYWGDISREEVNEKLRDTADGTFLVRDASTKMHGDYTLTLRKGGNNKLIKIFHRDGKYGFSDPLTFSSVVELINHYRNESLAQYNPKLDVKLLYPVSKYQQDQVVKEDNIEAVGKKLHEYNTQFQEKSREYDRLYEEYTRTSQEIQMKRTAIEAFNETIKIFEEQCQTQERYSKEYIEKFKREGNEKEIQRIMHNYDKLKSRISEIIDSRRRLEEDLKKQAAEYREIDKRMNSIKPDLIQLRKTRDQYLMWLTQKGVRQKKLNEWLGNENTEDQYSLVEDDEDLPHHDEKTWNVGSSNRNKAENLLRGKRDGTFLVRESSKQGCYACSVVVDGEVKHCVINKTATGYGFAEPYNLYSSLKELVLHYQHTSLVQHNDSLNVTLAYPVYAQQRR
The experiment in a line: PI 3-Kinase (human) HTRF assay, PI3K δ. The data set is classed as biochemical. Conditions: read-out: PI3K δ IC50.

Structures can show the parent of a compound that is named as a salt. *1 amine or outer side, *2 acyl side, *3 side chain or, on linkers, in order; H or OH if unused. Where a SMILES comes first, the peptide text is derived from it. Bridges are numbered along the chain shown (N, C = ends). Roman numbers before positions name the chains, in order. [ ]: non-standard residue; d: D form. Actinocin(9to1) = Cc1c2oc3c(C)ccc(C(=O)[*:1])c3nc-2c(C(=O)[*:2])c(N)c1=O; NMeV = CN[C@H](C(=O)O)C(C)C; Sar = CNCC(=O)O

The source of these data is US20150087627A1, “COMBINATION OF KINASE INHIBITORS AND USES THEREOF” (Intellikine LLC, priority 2011, published 2015).

T1 sequence (P42345 1360-2549 limits assumed): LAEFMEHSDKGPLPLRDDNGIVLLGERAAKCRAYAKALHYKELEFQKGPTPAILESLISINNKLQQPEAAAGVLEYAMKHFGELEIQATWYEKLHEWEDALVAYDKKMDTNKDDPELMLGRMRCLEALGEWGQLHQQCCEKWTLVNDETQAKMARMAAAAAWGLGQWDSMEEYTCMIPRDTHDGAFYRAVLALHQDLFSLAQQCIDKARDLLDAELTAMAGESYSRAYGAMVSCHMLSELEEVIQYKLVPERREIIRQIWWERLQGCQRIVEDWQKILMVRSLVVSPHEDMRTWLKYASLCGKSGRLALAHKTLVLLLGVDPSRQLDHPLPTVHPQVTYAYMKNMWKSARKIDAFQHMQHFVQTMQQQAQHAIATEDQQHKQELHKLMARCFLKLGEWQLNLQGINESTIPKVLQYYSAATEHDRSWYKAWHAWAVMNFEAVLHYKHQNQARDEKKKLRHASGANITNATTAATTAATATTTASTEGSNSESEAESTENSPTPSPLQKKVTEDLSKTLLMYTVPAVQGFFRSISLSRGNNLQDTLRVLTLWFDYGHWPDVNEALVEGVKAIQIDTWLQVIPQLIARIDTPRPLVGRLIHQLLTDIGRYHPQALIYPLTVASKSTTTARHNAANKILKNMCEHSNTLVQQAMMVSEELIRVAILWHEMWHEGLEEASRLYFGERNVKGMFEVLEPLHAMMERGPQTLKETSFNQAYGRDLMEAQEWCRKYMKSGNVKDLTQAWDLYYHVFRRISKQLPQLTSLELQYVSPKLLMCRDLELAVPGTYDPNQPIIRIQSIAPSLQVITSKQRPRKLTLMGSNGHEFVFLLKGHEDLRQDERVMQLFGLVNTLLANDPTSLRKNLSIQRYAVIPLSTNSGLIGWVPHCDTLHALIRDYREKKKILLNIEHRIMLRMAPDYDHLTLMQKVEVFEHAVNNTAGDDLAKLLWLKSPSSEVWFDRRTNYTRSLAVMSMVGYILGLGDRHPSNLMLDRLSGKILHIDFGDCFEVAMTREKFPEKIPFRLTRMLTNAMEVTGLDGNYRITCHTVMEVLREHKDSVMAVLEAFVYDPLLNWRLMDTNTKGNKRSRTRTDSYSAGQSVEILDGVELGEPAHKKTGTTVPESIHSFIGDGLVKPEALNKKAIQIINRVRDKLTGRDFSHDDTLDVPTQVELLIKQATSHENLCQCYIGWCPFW
T4 sequence (P48736 whole entry): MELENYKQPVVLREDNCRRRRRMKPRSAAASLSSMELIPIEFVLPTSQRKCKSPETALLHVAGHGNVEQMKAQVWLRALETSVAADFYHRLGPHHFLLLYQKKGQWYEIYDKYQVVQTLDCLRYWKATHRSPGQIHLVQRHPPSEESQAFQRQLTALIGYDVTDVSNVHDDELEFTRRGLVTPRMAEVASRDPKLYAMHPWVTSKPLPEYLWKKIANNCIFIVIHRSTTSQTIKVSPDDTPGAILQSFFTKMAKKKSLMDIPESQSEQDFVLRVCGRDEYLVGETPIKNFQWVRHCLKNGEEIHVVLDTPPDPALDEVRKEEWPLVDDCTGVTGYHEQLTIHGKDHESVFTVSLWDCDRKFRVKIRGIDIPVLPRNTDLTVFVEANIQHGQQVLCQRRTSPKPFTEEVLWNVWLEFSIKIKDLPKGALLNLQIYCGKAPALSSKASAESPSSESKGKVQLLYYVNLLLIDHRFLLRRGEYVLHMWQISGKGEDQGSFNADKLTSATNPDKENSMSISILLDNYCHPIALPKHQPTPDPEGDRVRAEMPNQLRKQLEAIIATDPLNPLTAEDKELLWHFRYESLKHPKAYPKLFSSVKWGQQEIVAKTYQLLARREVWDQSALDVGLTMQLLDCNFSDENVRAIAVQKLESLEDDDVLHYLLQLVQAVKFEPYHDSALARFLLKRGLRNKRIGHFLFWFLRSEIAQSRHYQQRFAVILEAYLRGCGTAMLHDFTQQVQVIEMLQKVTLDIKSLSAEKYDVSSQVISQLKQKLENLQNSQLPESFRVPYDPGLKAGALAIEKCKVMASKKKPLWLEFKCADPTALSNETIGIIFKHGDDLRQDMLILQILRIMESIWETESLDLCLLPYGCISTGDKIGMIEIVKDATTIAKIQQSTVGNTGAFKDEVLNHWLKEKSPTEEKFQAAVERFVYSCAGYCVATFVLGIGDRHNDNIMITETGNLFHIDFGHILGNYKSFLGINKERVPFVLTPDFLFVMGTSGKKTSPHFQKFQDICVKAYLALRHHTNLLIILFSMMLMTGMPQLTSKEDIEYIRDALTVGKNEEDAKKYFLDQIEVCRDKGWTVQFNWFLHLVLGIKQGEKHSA

Regarding `O=c1[nH]cc(F)c(=O)[nH]1` [5-fluorouracil, 5-fluoro-2,4-(1H,3H) pyrimidinedione], the “dose limiting or most common side effect” value in data set [1] was “Myelosuppression and mucositis”.

As to `N.N.O=C([O-])C1(C(=O)[O-])CCC1.[Pt+2]` [carboplatin, platinum, diamine [1,1-cyclobutane-dicarboxylate(2-)-O,O′]], in data set [1], the “dose limiting or most common side effect” value is “Bone marrow suppression”.

Take `CC(=O)O[C@@]12CO[C@@H]1C[C@H](O)[C@@]1(C)C(=O)[C@H](O)C3=C(C)[C@@H](OC(=O)[C@H](O)[C@@H](NC(=O)OC(C)(C)C)c4ccccc4)C[C@@](O)([C@@H](OC(=O)c4ccccc4)[C@H]21)C3(C)C` [docetaxel, (2R,3S)—N-carboxy-3-phenylisoserine, N-tert-butyl ester, 13-ester with 5β-20-epoxy-1,2α,4,7β,10β,13α-hexahydroxytax-1-1-en-9-one 4-acetate 2-benzoate, trihydrate]: the “dose limiting or most common side effect” value in data set [1] is given as “neutropenia”.

In the case of `Nc1ccn([C@@H]2O[C@H](CO)[C@@H](O)C2(F)F)c(=O)n1` [gemcitabine, 2′-deoxy-2′,2′-difluorocytidine monohydrochloride (β-isomer)], the “dose limiting or most common side effect” value in data set [1] is “Myelosuppression, including leucopenia, thrombocytopenia, and anemia”.

As for `Cc1c2oc3c(C)ccc(C(=O)N[C@@H]4C(=O)N[C@H](C(C)C)C(=O)N5CCC[C@H]5C(=O)N(C)CC(=O)N(C)[C@@H](C(C)C)C(=O)O[C@@H]4C)c3nc-2c(C(=O)N[C@@H]2C(=O)N[C@H](C(C)C)C(=O)N3CCC[C@H]3C(=O)N(C)CC(=O)N(C)[C@@H](C(C)C)C(=O)O[C@@H]2C)c(N)c1=O` [dactinomycin] (I: T[dV]P[Sar][NMeV] / II: T[dV]P[Sar][NMeV]; ester I:1-I:C, II:1-II:C; linker I:N-II:N via Actinocin(9to1)), in data set [1], the “dose limiting or most common side effect” value is “Nausea, vomiting, and anorexia”.

On to `O.O=P1(N(CCCl)CCCl)NCCCO1` (stereo not shown) [cyclophosphamide, 2-[bis(2-chloroethyl)amino]tetrahydro-2H-1,3,2-oxazaphosphorine 2-oxide monohydrate], for which, in data set [1], the “dose limiting or most common side effect” value is “Alopecia, nausea, vomiting and leukopenia”.

For the molecule `O.Sc1ncnc2nc[nH]c12` [mercaptopurine, 1,7-dihydro-6H-purine-6-thione monohydrate], in data set [1], the “dose limiting or most common side effect” value was “Myelosuppression and gastrointestinal mucositis”.

As to `N.N.[Cl][Pt][Cl]` [cisplatin, cis-diamminedichloroplatinum], in data set [1], the “dose limiting or most common side effect” value is “nephrotoxicity, which may be controlled by hydration and diuresis, and ototoxicity”.

Regarding `CC[C@]1(O)C[C@H]2CN(CCc3c([nH]c4ccccc34)[C@@](C(=O)OC)(c3cc4c(cc3OC)N(C=O)[C@H]3[C@@](O)(C(=O)OC)[C@H](OC(C)=O)[C@]5(CC)C=CCN6CC[C@]43[C@@H]65)C2)C1` [vincristine, vincaleukoblastine, 22-oxo-, sulfate], in data set [1], the “dose limiting or most common side effect” value was “Alopecia and neurologic effects”.

Turning to `N[C@@H](Cc1ccc(N(CCCl)CCCl)cc1)C(=O)O` [melphalan, 4-[bis(2-chloroethyl)amino]-L-phenylalanine], in data set [1], the “dose limiting or most common side effect” value is “Bone marrow suppression”.

In the case of `CN(Cc1cnc2nc(N)nc(N)c2n1)c1ccc(C(=O)N[C@@H](CCC(=O)O)C(=O)O)cc1` [methotrexate], the “dose limiting or most common side effect” value in data set [1] was “Myelosuppression (leucopenia, thrombocytopenia, and anemia) and mucositis”.

Take `COc1cccc2c1C(=O)c1c(O)c3c(c(O)c1C2=O)C[C@@](O)(C(=O)CO)C[C@@H]3O[C@H]1C[C@H](N)[C@H](O)[C@H](C)O1.Cl` [doxorubicin, (8S,10S)-10-[(3-amino-2,3,6-trideoxy-α-L-lyxo-hexopyranosyl)oxy]-8-glycoloyl, 7,8,9,10-tetrahydro-6,8,11-trihydroxy-1-methoxy-5,12 naphthacenedione hydrochloride]: the “dose limiting or most common side effect” value in data set [1] is reported as “Myelosuppression”.

On to `CN(C)N=Nc1[nH]cnc1C(N)=O` [dacarbazine, 5-(3,3-dimethyl-1-triazeno)-imidazole-4-carboxamide], for which, in data set [1], the “dose limiting or most common side effect” value was “Nausea, vomiting, and anorexia”.

In the case of `COc1cccc2c1C(=O)c1c(O)c3c(c(O)c1C2=O)C[C@@](O)(C(C)=O)C[C@@H]3O[C@H]1C[C@H](N)[C@H](O)[C@H](C)O1` [daunorubicin, (8S-cis-)-8-acetyl-10-[(3-amino-2,3,6-trideoxy-α-L-lyxo-hexopyranosyl)oxy]-7,8,9,10-tetrahydro-6,8,11-trihydroxy-1-methoxy-5,12 naphthacenedione hydrochloride], the “dose limiting or most common side effect” value in data set [1] is “Myelosuppression”.

As for `COc1cc([C@@H]2c3cc4c(cc3[C@@H](O[C@@H]3O[C@@H]5CO[C@@H](c6cccs6)O[C@H]5[C@H](O)[C@H]3O)[C@H]3COC(=O)[C@H]23)OCO4)cc(OC)c1O` [teniposide, 4′-demethyl-epipodophyllotoxin 9[4,6-0-(R)-thenylidene-β-D-glucopyranoside]], the “dose limiting or most common side effect” value in data set [1] is given as “Myelosuppression”.

For the molecule `CCC1=C[C@@H]2CN(C1)Cc1c([nH]c3ccccc13)[C@@](C(=O)OC)(c1cc3c(cc1OC)N(C)[C@H]1[C@@](O)(C(=O)OC)[C@H](OC(C)=O)[C@]4(CC)C=CCN5CC[C@]31[C@@H]54)C2` (relative stereo) [vinorelbine, 3′,4′-didehydro-4′-deoxy-C′-norvincaleukoblastine [R—(R*,R*)-2,3-dihydroxybutanedioate (1:2)(salt)]], the “dose limiting or most common side effect” value in data set [1] is given as “Myelosuppression”.

In the case of `CS(=O)(=O)OCCCCOS(C)(=O)=O` [busulfan, 1,4-butanediol dimethanesulfonate], in data set [1], the “dose limiting or most common side effect” value was “Bone marrow suppression”.

In the case of `O=C(O)CCCc1ccc(N(CCCl)CCCl)cc1` [chlorambucil], in data set [1], the “dose limiting or most common side effect” value is reported as “Bone marrow suppression”.

With `CC[C@@]1(O)C(=O)OCc2c1cc1n(c2=O)Cc2cc3c(CN(C)C)c(O)ccc3nc2-1` [topotecan HCl, (S)-10-[(dimethylamino)methyl]-4-ethyl-4,9-dihydroxy-1H-pyrano[3′,4′,6,7]-indolizino[1,2-b]quinoline-3,14-(4H,12H)-dione monohydrochloride], the “dose limiting or most common side effect” value in data set [1] is listed as “myelosuppression, primarily neutropenia”.

In the case of `CC(C)N1CCC(n2cnc3ccc(-c4ccc5oc(N)nc5c4)cc3c2=O)CC1` [Compound 74], the IC50 at mTOR is below 10000 nM; on PI3K α (p110α/p85α), below 100 nM; on PI3K β (p110β/p85α), below 10000 nM; on PI3K γ (p110γ) it was below 10000 nM; at PI3K δ it was above 10000 nM.

For `Nc1nc2cc(-c3ccc4ncc(N5CC(N6CC[C@@H](O)C6)C5)nc4c3)ccc2o1` [Compound 315], the IC50 on mTOR is below 1000 nM; on PI3K α (p110α/p85α) it was below 100 nM; on PI3K β (p110β/p85α) it was below 10000 nM; at PI3K γ (p110γ) it was below 10000 nM; on PI3K δ, below 10000 nM.

On to `Nc1nc2cc(-c3ccc4ncc(N5CC(N6CCN(CC7CC7)CC6)C5)nc4c3)ccc2o1` [Compound 335], for which the IC50 at mTOR is above 10000 nM; at PI3K α (p110α/p85α), below 100 nM; on PI3K β (p110β/p85α), below 10000 nM; on PI3K γ (p110γ) it was above 10000 nM; on PI3K δ, below 10000 nM.

Regarding `Nc1nc2nc[nH]c2c(=S)[nH]1` [thioguanine, 2-amino-1,7-dihydro-6H-purine-6-thione], the “dose limiting or most common side effect” value in data set [1] was “Myelosuppression, including leucopenia, thrombocytopenia, and anemia”.

For the molecule `COC(=O)N1CCC(n2ncc3c(N4CCOCC4)nc(-c4ccc5oc(N)nc5c4)nc32)CC1` [Compound 330], the IC50 was below 1000 nM on mTOR; below 1000 nM at PI3K α (p110α/p85α); below 10000 nM at PI3K β (p110β/p85α); above 10000 nM at PI3K γ (p110γ); above 10000 nM on PI3K δ.

On to `Nc1ccc2cc(-c3ccc4nccc(-c5ccncc5)c4c3)ccc2n1` [Compound 5], for which the IC50 on mTOR is below 1000 nM; at PI3K α (p110α/p85α), below 1000 nM; at PI3K β (p110β/p85α), above 10000 nM; on PI3K γ (p110γ) it was below 1000 nM; at PI3K δ, below 10000 nM.

As for `CS(=O)(=O)N1CCN(Cc2cc3nc(-c4ccc5oc(N)nc5c4)nc(N4CCOCC4)c3s2)CC1` [Compound 129], the IC50 at mTOR was below 1000 nM; on PI3K α (p110α/p85α), below 100 nM; on PI3K β (p110β/p85α), below 1000 nM; at PI3K γ (p110γ) it was below 100 nM; on PI3K δ it was below 1000 nM.

Consider `Nc1nc2cc(-c3ccc4ncc(N5CCC(n6ccnc6)CC5)nc4c3)ccc2o1` [Compound 345], for which the IC50 at mTOR was below 10000 nM; on PI3K α (p110α/p85α), below 100 nM; on PI3K β (p110β/p85α) it was below 1000 nM; on PI3K γ (p110γ) it was below 1000 nM; at PI3K δ, below 1000 nM.

Turning to `CN1CCN(C(=O)C2CN(c3cnc4ccc(-c5ccc6oc(N)nc6c5)cc4n3)C2)CC1` [Compound 170], the IC50 at mTOR is below 10000 nM; on PI3K α (p110α/p85α), below 100 nM; on PI3K β (p110β/p85α), below 1000 nM; on PI3K γ (p110γ) it was below 10000 nM; on PI3K δ, below 1000 nM.

For the molecule `CN1CCN([C@@H]2CCN(c3cnc4ccc(-c5ccc6oc(N)nc6c5)cc4n3)C2)CC1` [Compound 379], the IC50 is below 10000 nM at mTOR; below 100 nM on PI3K α (p110α/p85α); below 1000 nM on PI3K β (p110β/p85α); above 10000 nM at PI3K γ (p110γ); below 10000 nM on PI3K δ.

For `Nc1nc2cc(-c3ccc4ncc(N5CCNC(=O)C5)nc4c3)ccc2o1` [Compound 135], the IC50 at mTOR is above 10000 nM; on PI3K α (p110α/p85α), below 100 nM; at PI3K β (p110β/p85α), below 1000 nM; at PI3K γ (p110γ) it was below 1000 nM; at PI3K δ it was above 10000 nM.

For orientation: IC50 means the midpoint of a concentration-inhibition curve.
